Laboratory results from patent US8129389B2, “Substituted oxindole derivatives, medicaments containing the latter and use thereof” (Abbott GmbH & Co. KG, priority 2005, dated 2012).
Read-outs that look alike come from different tables or passages of the source.

Biological target: T1, human V1b receptors (Homo sapiens, UniProt P47901)
T1 construct: expressed in transfected cells
T1 sequence (P47901 1-424): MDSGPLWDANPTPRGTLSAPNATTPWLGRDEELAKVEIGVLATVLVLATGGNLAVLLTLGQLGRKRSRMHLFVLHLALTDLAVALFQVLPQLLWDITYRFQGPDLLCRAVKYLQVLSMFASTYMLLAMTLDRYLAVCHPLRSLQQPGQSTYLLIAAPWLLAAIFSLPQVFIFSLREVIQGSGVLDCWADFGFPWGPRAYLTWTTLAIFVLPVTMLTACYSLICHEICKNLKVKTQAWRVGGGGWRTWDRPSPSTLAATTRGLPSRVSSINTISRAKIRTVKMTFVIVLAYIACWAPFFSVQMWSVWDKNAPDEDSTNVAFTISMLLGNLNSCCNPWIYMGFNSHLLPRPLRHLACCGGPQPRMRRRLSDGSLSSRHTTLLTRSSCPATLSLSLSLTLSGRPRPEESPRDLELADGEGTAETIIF
Assay: Vasopressin V1b receptor binding assay
Experimental: Vasopressin V1b Receptor Binding Assay:
These DMSO solutions were diluted 1:10 with assay buffer. The substance concentration was further diluted 1:10 in the assay mixture.
The nonspecific binding was determined with 10^−6 M AVP. Determinations in triplicate were carried out.
The affinities for the human vasopressin V1b receptor were measured, and affinity constants determined, in the above assay for the inventive examples.
The affinities of the compounds (I) of the invention for the human vasopressin V1b receptor were measured in accordance with the above assays, and the affinity constants (Ki) were determined. Table 1 below details the V1b receptor affinity of selected compounds (+++ means <10 nM and ++ means 10-100 nM).

[1] = Table 1, human vasopressin V1b receptor affinity, read-out: V1b Ki
[2] = membranes from CHO-K1 cells, 3H-AVP displacement, read-out: measured Ki values, affinities for the vasopressin V1b receptor

SMILES | Ki [1] [µM] | Ki [2] [µM]
CCOc1ccccc1C1(OC(=O)N2CCN(c3ccncc3)CC2)C(=O)N(S(=O)(=O)c2ccccc2F)c2ccc(C#N)cc21 (stereo not shown) [Example 8, 5-Cyano-1-(2-fluorobenzenesulfonyl)-3-(2-ethoxyphenyl)-2-oxo-2,3-dihydro-1H-indol-3-yl 4-(pyridin-4-yl)piperazine-1-carboxylate] | 0.01 to 0.1 | < 0.1
CCOc1ccccc1C1(OC(=O)N2CCN(c3ccncc3)CC2)C(=O)N(S(=O)(=O)c2ccccc2)c2ccc(C#N)cc21 (stereo not shown) [Example 9, 5-Cyano-1-benzenesulfonyl-3-(2-ethoxyphenyl)-2-oxo-2,3-dihydro-1H-indol-3-yl 4-(pyridin-4-yl)-piperazine-1-carboxylate] | 0.01 to 0.1 | < 0.1
CCOc1ccccc1C1(NC(=O)N2CCN(c3ccncc3)CC2)C(=O)N(S(=O)(=O)c2ccccc2)c2ccc(C#N)cc21 (stereo not shown) [Example 11, 4-(Pyridin-4-yl)piperazine-1-[1-benzenesulfonyl-5-cyano-2-oxo-3-(2-ethoxyphenyl)-2,3-dihydro-1H-indol-3-yl]carboxamide] | 0.01 to 0.1 | < 0.1
CCOc1ccccc1C1(NC(=O)N2CCN(c3ccncc3)CC2)C(=O)N(S(=O)(=O)c2ccc(F)cc2F)c2ccc(C#N)cc21 (stereo not shown) [Example 13, 4-(Pyridin-4-yl)piperazine-1-[1-(2,4-difluorobenzenesulfonyl)-5-cyano-2-oxo-3-(2-ethoxyphenyl)-2,3-dihydro-1H-indol-3-yl]carboxamide] | 0.01 to 0.1 | < 0.1
CCOc1ccccc1C1(OC(=O)N2CCN(c3ccncc3)CC2)C(=O)N(S(=O)(=O)c2ccc(C#N)cc2)c2ccc(C#N)cc21 (stereo not shown) [Example 18, 1-(4-Cyanobenzenesulfonyl)-5-cyano-2-oxo-3-(2-ethoxyphenyl)-2,3-dihydro-1H-indol-3-yl 4-(pyridin-4-yl)piperazine-1-carboxylate] | 0.01 to 0.1 | < 0.1
CCOc1ccccc1C1(OC(=O)N2CCN(c3ccncc3)CC2)C(=O)N(S(=O)(=O)c2ccc(F)cc2)c2ccc(C#N)cc21 (stereo not shown) [Example 21, 1-(4-Fluorobenzenesulfonyl)-5-cyano-2-oxo-3-(2-ethoxyphenyl)-2,3-dihydro-1H-indol-3-yl 4-(pyridin-4-yl)piperazine-1-carboxylate] | 0.01 to 0.1 | < 0.1
CCOc1ccccc1C1(OC(=O)N2CCN(c3ccccn3)CC2)C(=O)N(S(=O)(=O)c2ccc(OC)cc2OC)c2ccc(C#N)cc21 (stereo not shown) [Example 25, 1-(2,4-Dimethoxybenzenesulfonyl)-5-cyano-2-oxo-3-(2-ethoxyphenyl)-2,3-dihydro-1H-indol-3-yl 4-(pyridin-2-yl)piperazine-1-carboxylate] | 0.01 to 0.1 | < 0.1
CCOc1ccccc1C1(OC(=O)N2CCN(c3ncccn3)CC2)C(=O)N(S(=O)(=O)c2ccc(OC)cc2OC)c2ccc(C#N)cc21 (stereo not shown) [Example 27, 1-(2,4-Dimethoxybenzenesulfonyl)-5-cyano-2-oxo-3-(2-ethoxyphenyl)-2,3-dihydro-1H-indol-3-yl 4-(pyrimidin-2-yl)piperazin-1-carboxylate] | 0.01 to 0.1 | < 0.1
CCOc1ccccc1C1(OC(=O)N2CCN(c3cnccn3)CC2)C(=O)N(S(=O)(=O)c2ccc(OC)cc2OC)c2ccc(C#N)cc21 (stereo not shown) [Example 29, 1-(2,4-Dimethoxybenzenesulfonyl)-5-cyano-2-oxo-3-(2-ethoxyphenyl)-2,3-dihydro-1H-indol-3-yl 4-(pyrazin-2-yl)piperazine-1-carboxylate] | 0.01 to 0.1 | < 0.1

Continued, values first:

Ki [1] [µM] | Ki [2] [µM] | SMILES
0.01 to 0.1 | < 0.1 | CCOc1ccccc1C1(OC(=O)N2CCN(c3ccncc3)CC2)C(=O)N(S(=O)(=O)c2ccccc2OC)c2ccc(C#N)cc21 (stereo not shown) [Example 2, 5-Cyano-1-(2-methoxybenzenesulfonyl)-3-(2-ethoxyphenyl)-2-oxo-2,3-dihydro-1H-indol-3-yl 4-(pyridin-4-yl)piperazine-1-carboxylate]
< 0.01 | < 0.1 | CCOc1ccccc1C1(OC(=O)N2CCN(c3ccncc3)CC2)C(=O)N(S(=O)(=O)c2ccc(OC)cc2OC)c2ccc(C#N)cc21 (stereo not shown) [Example 3, 5-Cyano-1-(2,4-dimethoxybenzenesulfonyl)-3-(2-ethoxyphenyl)-2-oxo-2,3-dihydro-1H-indol-3-yl 4-(pyridin-4-yl)piperazine-1-carboxylate]
< 0.01 | < 0.1 | CCOc1ccccc1C1(OC(=O)N2CCN(c3nccs3)CC2)C(=O)N(S(=O)(=O)c2ccccc2OC)c2ccc(C#N)cc21 (stereo not shown) [Example 4, 5-Cyano-1-(2-methoxybenzenesulfonyl)-3-(2-ethoxyphenyl)-2-oxo-2,3-dihydro-1H-indol-3-yl 4-(thiazol-2-yl)piperazine-1-carboxylate]
0.01 to 0.1 | < 0.1 | CCOc1ccccc1C1(OC(=O)N2CCN(c3ccncc3)CC2)C(=O)N(S(=O)(=O)c2ccc(F)cc2F)c2ccc(C#N)cc21 (stereo not shown) [Example 7, 5-Cyano-1-(2,4-difluorobenzenesulfonyl)-3-(2-ethoxyphenyl)-2-oxo-2,3-dihydro-1H-indol-3-yl 4-(pyridin-4-yl)piperazine-1-carboxylate]
< 0.01 | < 0.1 | CCOc1ccccc1C1(NC(=O)N2CCN(c3ccncc3)CC2)C(=O)N(S(=O)(=O)c2ccccc2OC)c2ccc(C#N)cc21 (stereo not shown) [Example 10, 4-(Pyridin-4-yl)piperazine-1-[1-(2-methoxybenzenesulfonyl)-5-cyano-2-oxo-3-(2-ethoxyphenyl)-2,3-dihydro-1H-indol-3-yl]carboxamide]
< 0.01 | < 0.1 | CCOc1ccccc1C1(NC(=O)N2CCN(c3ccncc3)CC2)C(=O)N(S(=O)(=O)c2ccccc2F)c2ccc(C#N)cc21 (stereo not shown) [Example 12, 4-(Pyridin-4-yl)piperazine-1-[1-(2-fluorobenzenesulfonyl)-5-cyano-2-oxo-3-(2-ethoxyphenyl)-2,3-dihydro-1H-indol-3-yl]carboxamide]
< 0.01 | < 0.1 | CCOc1ccccc1C1(NC(=O)N2CCN(c3ccncc3)CC2)C(=O)N(S(=O)(=O)c2ccc(C#N)cc2)c2ccc(C#N)cc21 (stereo not shown) [Example 14, 4-(Pyridin-4-yl)piperazine-1-[1-(4-cyanobenzenesulfonyl)-5-cyano-2-oxo-3-(2-ethoxyphenyl)-2,3-dihydro-1H-indol-3-yl]carboxamide]
< 0.01 | < 0.1 | CCOc1ccccc1C1(NC(=O)N2CCN(c3ccncc3)CC2)C(=O)N(S(=O)(=O)c2ccc(C)cc2OC)c2ccc(C#N)cc21 (stereo not shown) [Example 15, 4-(Pyridin-4-yl)piperazine-1-[1-(2-methoxy-4-methylbenzenesulfonyl)-5-cyano-2-oxo-3-(2-ethoxyphenyl)-2,3-dihydro-1H-indol-3-yl]carboxamide]
< 0.01 | < 0.1 | CCOc1ccccc1C1(NC(=O)N2CCN(c3ccncc3)CC2)C(=O)N(S(=O)(=O)c2ccc(OC)cc2OC)c2ccc(C#N)cc21 (stereo not shown) [Example 16, 4-(Pyridin-4-yl)piperazine-1-[1-(2,4-dimethoxybenzenesulfonyl)-5-cyano-2-oxo-3-(2-ethoxyphenyl)-2,3-dihydro-1H-indol-3-yl]carboxamide]
< 0.01 | < 0.1 | CCOc1ccccc1C1(NC(=O)N2CCN(c3ccncc3)CC2)C(=O)N(S(=O)(=O)c2ccc([N+](=O)[O-])cc2)c2ccc(C#N)cc21 (stereo not shown) [Example 17, 4-(Pyridin-4-yl)piperazine-1-[1-(4-nitrobenzenesulfonyl)-5-cyano-2-oxo-3-(2-ethoxyphenyl)-2,3-dihydro-1H-indol-3-yl]carboxamide]
< 0.01 | < 0.1 | CCOc1ccccc1C1(OC(=O)N2CCN(c3ccncc3)CC2)C(=O)N(S(=O)(=O)c2ccc([N+](=O)[O-])cc2)c2ccc(C#N)cc21 (stereo not shown) [Example 19, 1-(4-Nitrobenzenesulfonyl)-5-cyano-2-oxo-3-(2-ethoxyphenyl)-2,3-dihydro-1H-indol-3-yl 4-(pyridin-4-yl)piperazine-1-carboxylate]
< 0.01 | < 0.1 | CCOc1ccccc1C1(OC(=O)N2CCN(c3ccncc3)CC2)C(=O)N(S(=O)(=O)c2ccc(C)cc2OC)c2ccc(C#N)cc21 (stereo not shown) [Example 20]
< 0.01 | < 0.1 | CCOc1ccccc1C1(OC(=O)N2CCN(c3cc(C#N)ccn3)CC2)C(=O)N(S(=O)(=O)c2ccc(OC)cc2OC)c2ccc(C#N)cc21 (stereo not shown) [Example 26, 1-(2,4-Dimethoxybenzenesulfonyl)-5-cyano-2-oxo-3-(2-ethoxyphenyl)-2,3-dihydro-1H-indol-3-yl 4-(4-cyanopyridin-2-yl)piperazine-1-carboxylate]
< 0.01 | < 0.1 | CCOc1ccccc1C1(OC(=O)N2CCN(c3nccs3)CC2)C(=O)N(S(=O)(=O)c2ccc(OC)cc2OC)c2ccc(C#N)cc21 (stereo not shown) [Example 30, 1-(2,4-Dimethoxybenzenesulfonyl)-5-cyano-2-oxo-3-(2-ethoxyphenyl)-2,3-dihydro-1H-indol-3-yl 4-(thiazol-2-yl)piperazine-1-carboxylate]
